# Measurements reported in patent US9469650B2, “Melampomagnolide B derivatives” (BOARD OF TRUSTEES OF THE UNIVERSITY OF ARKANSAS, priority 2013, dated 2016).
# Legend:
# [1] = system: OVCAR-8; assay: panel of 60 human tumor cell lines, growth inhibition (Ovarian Cancer); details: Homo sapiens; for GI50: OVCAR-8; for CC50: OVCAR-8, read-out: LC50; for IC (TGI): OVCAR-8, read-out: TGI
# [2] = system: SF-268; assay: panel of 60 human tumor cell lines, growth inhibition (CNS Cancer); details: Homo sapiens; for GI50: SF-268; for CC50: SF-268, read-out: LC50; for IC (TGI): SF-268, read-out: TGI
# [3] = system: K-562; assay: panel of 60 human tumor cell lines, growth inhibition (Leukemia); details: for GI50 / CC50: Homo sapiens; for GI50: K562; for CC50: K562, read-out: LC50; for Percent Growth / TGI: K-562; for TGI: NCI five dose
# [4] = system: HCT-15; assay: panel of 60 human tumor cell lines, growth inhibition (Colon Cancer); details: Homo sapiens; for GI50: HCT-15; for CC50: HCT-15, read-out: LC50; for IC (TGI): HCT-15, read-out: TGI
# [5] = system: A498; assay: panel of 60 human tumor cell lines, growth inhibition (Renal Cancer); details: Homo sapiens; for GI50: A498; for CC50: A498, read-out: LC50; for IC (TGI): A498, read-out: TGI
# [6] = system: MDA-MB-435; assay: panel of 60 human tumor cell lines, growth inhibition (Melanoma); details: Homo sapiens; for GI50: MDA-MB-435; for CC50: MDA-MB-435, read-out: LC50; for IC (TGI): MDA-MB-435, read-out: TGI
# [7] = system: SR; assay: panel of 60 human tumor cell lines, growth inhibition (Leukemia); details: Homo sapiens; for CC50: read-out: LC50; for IC (TGI): read-out: TGI
# [8] = system: SF-539; assay: panel of 60 human tumor cell lines, growth inhibition (CNS Cancer); details: Homo sapiens; for GI50: SF-539; for CC50: SF-539, read-out: LC50; for IC (TGI): SF-539, read-out: TGI
# [9] = system: CCRF-CEM; assay: panel of 60 human tumor cell lines, growth inhibition (Leukemia); details: Homo sapiens; for GI50: NCI five dose; for CC50: read-out: LC50; for IC (TGI): read-out: TGI
# [10] = system: RXF 393; assay: panel of 60 human tumor cell lines, growth inhibition (Renal Cancer); details: Homo sapiens; for GI50: RXF 393, RXF 393, NCI five dose; for CC50: RXF 393, read-out: LC50; for IC (TGI): RXF 393, read-out: TGI
# [11] = system: NCI-H322M; assay: panel of 60 human tumor cell lines, growth inhibition (Non-Small Cell Lung Cancer); details: Homo sapiens; for CC50: read-out: LC50; for IC (TGI): read-out: TGI
# [12] = system: HOP-92; assay: as above; details: Homo sapiens; for GI50: HOP-92, HOP-92, NCI five dose; for CC50: HOP-92, read-out: LC50; for IC (TGI): HOP-92, read-out: TGI
# [13] = system: COLO 205; assay: panel of 60 human tumor cell lines, growth inhibition (Colon Cancer); details: Homo sapiens; for GI50: COLO 205; for CC50: COLO 205, read-out: LC50; for IC (TGI): COLO 205, read-out: TGI
# [14] = system: UACC-62; assay: panel of 60 human tumor cell lines, growth inhibition (Melanoma); details: Homo sapiens; for GI50: UACC-62; for CC50: UACC-62, read-out: LC50; for IC (TGI): UACC-62, read-out: TGI
# [15] = system: MDA-MB-468; assay: panel of 60 human tumor cell lines, growth inhibition (Breast Cancer); details: Homo sapiens; for GI50: MDA-MB-468; for CC50: MDA-MB-468, read-out: LC50; for IC (TGI): MDA-MB-468, read-out: TGI
# [16] = system: UACC-257; assay: panel of 60 human tumor cell lines, growth inhibition (Melanoma); details: for GI50 / CC50: Homo sapiens; for GI50 / Percent Growth / TGI: UACC-257; for CC50: UACC-257, read-out: LC50; for TGI: NCI five dose
# [17] = system: OVCAR-5; assay: panel of 60 human tumor cell lines, growth inhibition (Ovarian Cancer); details: Homo sapiens; for GI50: OVCAR-5; for CC50: OVCAR-5, read-out: LC50; for IC (TGI): OVCAR-5, read-out: TGI
structure (smiles),measurement,setting,value
C=C1C(=O)O[C@H]2[C@H]1CC/C(COC(=O)OCCN(C)C)=C\CC[C@@]1(C)O[C@@H]21 [JVM 2-35],GI50,[1],13.5 µM
same,CC50,[1],96 µM
same,IC (TGI),[1],36 µM
same,GI50,[2],11.7 µM
same,CC50,[2],69.3 µM
same,IC (TGI),[2],28.5 µM
same,GI50,[3],5.55 µM
same,CC50,[3],> 100 µM
same,Percent Growth,[3]; Log10 Concentration −4.0,−33%
same,Percent Growth,[3]; Log10 Concentration −5.0,30%
same,Percent Growth,[3]; Log10 Concentration −6.0,107%
same,Percent Growth,[3]; Log10 Concentration −7.0,96%
same,Percent Growth,[3]; Log10 Concentration −8.0,101%
same,TGI,[3],3.00E−5
same,GI50,[4],2.78 µM
same,CC50,[4],44.3 µM
same,IC (TGI),[4],12.8 µM
same,GI50,[5],13.3 µM
same,CC50,[5],56.6 µM
same,IC (TGI),[5],27.4 µM
same,GI50,[6],4.03 µM
same,CC50,[6],45.7 µM
same,IC (TGI),[6],16.3 µM
same,GI50,[7],2.22 µM
same,CC50,[7],> 100 µM
same,IC (TGI),[7],12.1 µM
same,GI50,[8],3.86 µM
same,CC50,[8],41.3 µM
same,IC (TGI),[8],14.7 µM
same,GI50,[9],2.1 µM
same,CC50,[9],> 100 µM
same,IC (TGI),[9],6.14 µM
same,GI50,[10],3.23 µM
same,CC50,[10],45.8 µM
same,IC (TGI),[10],13.7 µM
same,GI50,[11],28.7 µM
same,CC50,[11],> 100 µM
same,IC (TGI),[11],> 100 µM
same,GI50,[12],2.69 µM
same,CC50,[12],35.8 µM
same,IC (TGI),[12],10.1 µM
same,GI50,[13],2.19 µM
same,CC50,[13],18.6 µM
same,IC (TGI),[13],5.46 µM
same,GI50,[14],6.13 µM
same,CC50,[14],46.6 µM
same,IC (TGI),[14],19.9 µM
same,GI50,[15],1.46 µM
same,CC50,[15],50.4 µM
same,IC (TGI),[15],9.2 µM
same,GI50,[16],10.2 µM
same,CC50,[16],55.2 µM
same,Percent Growth,[16]; Log10 Concentration −4.0,−85%
same,Percent Growth,[16]; Log10 Concentration −5.0,51%
same,Percent Growth,[16]; Log10 Concentration −6.0,92%
same,Percent Growth,[16]; Log10 Concentration −7.0,86%
same,Percent Growth,[16]; Log10 Concentration −8.0,93%
same,TGI,[16],2.38E−5
same,GI50,[17],13.1 µM
same,CC50,[17],57 µM
same,IC (TGI),[17],27.3 µM
C=C1C(=O)O[C@H]2[C@H]1CC/C(COC(=O)NCCCCCCO)=C\CC[C@@]1(C)O[C@@H]21 [JVM 2-31],GI50,[1],10.2 µM
same,CC50,[1],76 µM
same,IC (TGI),[1],27.9 µM
same,GI50,[2],8.59 µM
same,CC50,[2],73 µM
same,IC (TGI),[2],26 µM
same,GI50,[3],4.96 µM
same,CC50,[3],> 100 µM
same,Percent Growth,[3]; Log10 Concentration −4.0,−33%
same,Percent Growth,[3]; Log10 Concentration −5.0,28%
same,Percent Growth,[3]; Log10 Concentration −6.0,101%
same,Percent Growth,[3]; Log10 Concentration −7.0,113%
same,Percent Growth,[3]; Log10 Concentration −8.0,102%
same,TGI,[3],2.88E−5
same,GI50,[4],2.56 µM
same,CC50,[4],49.5 µM
same,IC (TGI),[4],12.1 µM
same,GI50,[5],12.5 µM
same,CC50,[5],53.4 µM
same,IC (TGI),[5],25.9 µM
same,GI50,[6],4.45 µM
same,CC50,[6],70.9 µM
same,IC (TGI),[6],20.2 µM
same,GI50,[7],2.35 µM
same,CC50,[7],> 100 µM
same,IC (TGI),[7],13.3 µM
same,GI50,[8],2.42 µM
same,CC50,[8],34.8 µM
same,IC (TGI),[8],8.33 µM
same,GI50,[9],2.78 µM
same,CC50,[9],> 100 µM
same,IC (TGI),[9],10.7 µM
same,GI50,[10],1.24 µM
same,CC50,[10],40.2 µM
same,IC (TGI),[10],9.75 µM
same,GI50,[11],32.2 µM
same,CC50,[11],> 100 µM
same,IC (TGI),[11],89 µM
same,GI50,[12],2.77 µM
same,CC50,[12],38.5 µM
same,IC (TGI),[12],9.99 µM
same,GI50,[13],2.56 µM
same,CC50,[13],32 µM
same,IC (TGI),[13],6.39 µM
same,GI50,[14],6.78 µM
same,CC50,[14],53.4 µM
same,IC (TGI),[14],21.4 µM
same,GI50,[15],1.01 µM
same,CC50,[15],35.7 µM
same,IC (TGI),[15],5.23 µM
same,GI50,[16],8.79 µM
same,CC50,[16],64.3 µM
same,Percent Growth,[16]; Log10 Concentration −4.0,−73%
same,Percent Growth,[16]; Log10 Concentration −5.0,47%
same,Percent Growth,[16]; Log10 Concentration −6.0,95%
same,Percent Growth,[16]; Log10 Concentration −7.0,104%
same,Percent Growth,[16]; Log10 Concentration −8.0,102%
same,TGI,[16],2.47E−5
same,GI50,[17],13.4 µM
same,CC50,[17],64.1 µM
same,IC (TGI),[17],29.3 µM
C=C1C(=O)O[C@H]2[C@H]1CC/C(COC(=O)OC)=C\CC[C@@]1(C)O[C@@H]21 [JVM 2-40],GI50,[1],8.95 µM
same,CC50,[1],65.6 µM
same,IC (TGI),[1],24.7 µM
same,GI50,[2],7.36 µM
same,CC50,[2],62.8 µM
same,IC (TGI),[2],23.6 µM
same,GI50,[3],4.12 µM
same,CC50,[3],> 100 µM
same,Percent Growth,[3]; Log10 Concentration −4.0,−31%
same,Percent Growth,[3]; Log10 Concentration −5.0,21%
same,Percent Growth,[3]; Log10 Concentration −6.0,97%
same,Percent Growth,[3]; Log10 Concentration −7.0,99%
same,Percent Growth,[3]; Log10 Concentration −8.0,101%
same,TGI,[3],2.53E−5
same,GI50,[4],1.96 µM
same,CC50,[4],28.9 µM
same,IC (TGI),[4],6.78 µM
same,GI50,[5],10.9 µM
same,CC50,[5],49 µM
same,IC (TGI),[5],23.1 µM
same,GI50,[6],3.63 µM
same,CC50,[6],55.4 µM
same,IC (TGI),[6],16.8 µM
same,GI50,[7],2.24 µM
same,CC50,[7],> 100 µM
same,IC (TGI),[7],12.5 µM
same,GI50,[8],2.56 µM
same,CC50,[8],32.7 µM
same,IC (TGI),[8],8.79 µM
same,GI50,[9],1.49 µM
same,CC50,[9],98 µM
same,IC (TGI),[9],6.04 µM
same,GI50,[10],1.68 µM
same,CC50,[10],31.7 µM
same,IC (TGI),[10],6.85 µM
same,GI50,[11],20.9 µM
same,CC50,[11],> 100 µM
same,IC (TGI),[11],81.5 µM
same,GI50,[12],2.33 µM
same,CC50,[12],30.7 µM
same,IC (TGI),[12],7.99 µM
same,GI50,[13],2.25 µM
same,CC50,[13],25 µM
same,GI50,[14],5.93 µM
same,CC50,[14],46.2 µM
same,IC (TGI),[14],19.5 µM
same,GI50,[15],0.574 µM
same,CC50,[15],19.2 µM
same,IC (TGI),[15],3.09 µM
same,GI50,[16],4.98 µM
same,CC50,[16],46.7 µM
same,Percent Growth,[16]; Log10 Concentration −4.0,−92%
same,Percent Growth,[16]; Log10 Concentration −5.0,36%
same,Percent Growth,[16]; Log10 Concentration −6.0,82%
same,Percent Growth,[16]; Log10 Concentration −7.0,84%
same,Percent Growth,[16]; Log10 Concentration −8.0,90%
same,TGI,[16],1.90E−5
same,GI50,[17],5.31 µM
same,CC50,[17],47 µM
same,IC (TGI),[17],19.5 µM
